From US10259810B2, “N-sulfonylated pyrazolo[3,4-b]pyridin-6-carboxamides and method of use” (AbbVie S.à.r.l., priority 2015, dated 2019)

Key:
[1] = target: T1, ΔF508-CFTR (Homo sapiens, UniProt P13569, DEL508-508); experiment: CFTR cell surface levels using HRP-tagged ΔF508-CFTR expressing CFBE cells, in the presence of a co-corrector; assay type: cell-based; conditions: HRP-tagged ΔF508-CFTR CFBE cells, in the presence of 3 μM co-corrector; for EC50: read-out: EC50
T1 construct: host or cells: CFBE41o-, doxycycline-inducible
Outline: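 Chemiluminescent read-out of surface HRP (15 min, dark) after PBS washes. Activity is normalized as 100×(sample−DMSO)/(3 μM co-corrector alone−DMSO).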

[2] = target: T1, ΔF508-CFTR; experiment: CFTR cell surface levels using HRP-tagged ΔF508-CFTR expressing CFBE cells, intrinsic corrector capacity; assay type: cell-based; design: % Activation: concentration or dose not given beside the values; conditions: HRP-tagged ΔF508-CFTR expressing CFBE41o- cells, compound alone (intrinsic corrector capacity), 20 hours at 33° C.; for EC50: read-out: EC50
Outline: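 Read-out: chemiluminescent HRP activity of ECL4-HRP-tagged ΔF508-CFTR at the cell surface, 15 min substrate in dark. Normalized as 100×(sample−DMSO)/(positive control−DMSO).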

T1 sequence (P13569 with tags, fused parts or gaps DEL508-508): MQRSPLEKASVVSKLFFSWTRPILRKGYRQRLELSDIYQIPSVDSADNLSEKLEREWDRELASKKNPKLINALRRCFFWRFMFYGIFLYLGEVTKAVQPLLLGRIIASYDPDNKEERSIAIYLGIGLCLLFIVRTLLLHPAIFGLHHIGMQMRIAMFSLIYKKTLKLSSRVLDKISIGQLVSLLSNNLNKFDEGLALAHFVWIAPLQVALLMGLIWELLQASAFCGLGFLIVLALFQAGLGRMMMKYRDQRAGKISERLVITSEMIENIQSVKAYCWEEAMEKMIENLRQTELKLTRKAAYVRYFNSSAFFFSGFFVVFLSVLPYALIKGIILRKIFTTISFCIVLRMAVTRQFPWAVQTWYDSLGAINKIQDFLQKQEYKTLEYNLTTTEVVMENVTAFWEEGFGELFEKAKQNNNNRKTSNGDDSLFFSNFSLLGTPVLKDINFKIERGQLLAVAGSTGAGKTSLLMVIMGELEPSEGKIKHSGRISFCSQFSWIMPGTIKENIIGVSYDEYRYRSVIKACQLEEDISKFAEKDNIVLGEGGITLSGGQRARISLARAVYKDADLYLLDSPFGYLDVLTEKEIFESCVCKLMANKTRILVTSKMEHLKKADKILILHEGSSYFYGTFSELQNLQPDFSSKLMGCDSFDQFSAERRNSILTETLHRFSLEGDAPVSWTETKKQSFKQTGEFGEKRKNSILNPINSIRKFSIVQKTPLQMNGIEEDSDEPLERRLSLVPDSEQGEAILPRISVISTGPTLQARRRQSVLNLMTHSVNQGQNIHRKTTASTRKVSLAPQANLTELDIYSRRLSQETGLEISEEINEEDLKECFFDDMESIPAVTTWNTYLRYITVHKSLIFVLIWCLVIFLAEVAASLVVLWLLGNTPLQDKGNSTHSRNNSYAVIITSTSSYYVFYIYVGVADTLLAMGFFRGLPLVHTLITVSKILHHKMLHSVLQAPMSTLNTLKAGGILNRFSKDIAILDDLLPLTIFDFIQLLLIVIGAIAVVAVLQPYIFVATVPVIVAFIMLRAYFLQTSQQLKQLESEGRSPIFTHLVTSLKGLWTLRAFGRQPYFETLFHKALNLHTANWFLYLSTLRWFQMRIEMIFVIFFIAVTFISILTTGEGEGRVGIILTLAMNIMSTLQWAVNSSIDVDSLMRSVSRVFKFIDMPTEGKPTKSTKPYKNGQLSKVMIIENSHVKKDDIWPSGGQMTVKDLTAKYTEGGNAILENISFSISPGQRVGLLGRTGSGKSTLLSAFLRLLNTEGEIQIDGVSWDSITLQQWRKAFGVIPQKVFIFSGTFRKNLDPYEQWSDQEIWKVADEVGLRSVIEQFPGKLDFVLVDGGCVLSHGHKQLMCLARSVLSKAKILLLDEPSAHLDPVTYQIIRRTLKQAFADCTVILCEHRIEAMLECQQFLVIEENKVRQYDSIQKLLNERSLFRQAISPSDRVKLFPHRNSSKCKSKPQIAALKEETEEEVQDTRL

Compound	% Activation [1] [%]	EC50 [1] [nM]	% Activation [2] [%]	EC50 [2] [nM]
CCS(=O)(=O)NC(=O)c1cc(-c2ccc(N3CCOCC3)nc2)c2c(C(C)C)nn(-c3cccc(N(C)C)c3)c2n1 [Compound 54, 1-[3-(dimethylamino)phenyl]-N-(ethanesulfonyl)-4-[6-(morpholin-4-yl)pyridin-3-yl]-3-(propan-2-yl)-1H-pyrazolo[3,4-b]pyridine-6-carboxamide]	593.12	464	386.92	780
CCS(=O)(=O)NC(=O)c1cc(-c2ccc(OC)cc2)c2c(C)nn(-c3ccc(C)c(Cl)c3)c2n1 [Compound 114, 1-(3-chloro-4-methylphenyl)-N-(ethanesulfonyl)-4-(4-methoxyphenyl)-3-methyl-1H-pyrazolo[3,4-b]pyridine-6-carboxamide]	277.45	952	130.85	1140
O=C(NS(=O)(=O)CCO)c1cc(N2CCC(CCN3CCOCC3)CC2)c2c(C3CCC3)nn(-c3ccc(F)cc3)c2n1 [Compound 491, 3-cyclobutyl-1-(4-fluorophenyl)-N-(2-hydroxyethanesulfonyl)-4-{4-[2-(morpholin-4-yl)ethyl]piperidin-1-yl}-1H-pyrazolo[3,4-b]pyridine-6-carboxamide]	490.9	488	204.5	248
C#CCCS(=O)(=O)NC(=O)c1cc(N2CCC(N3CCOCC3)CC2)c2c(C3CCC3)nn(-c3ccc(F)cc3)c2n1 [Compound 477, N-(but-3-yne-1-sulfonyl)-3-cyclobutyl-1-(4-fluorophenyl)-4-[4-(morpholin-4-yl)piperidin-1-yl]-1H-pyrazolo[3,4-b]pyridine-6-carboxamide]	536.7	34.7	341.4	117
O=C(c1cc(N2CCC(CN3CCCC3)CC2)c2c(C3CCC3)nn(-c3ccccc3)c2n1)N1CCCCS1(=O)=O [Compound 663, 2-(3-cyclobutyl-1-phenyl-4-{4-[(pyrrolidin-1-yl)methyl]piperidin-1-yl}-1H-pyrazolo[3,4-b]pyridine-6-carbonyl)-1λ^6,2-thiazinane-1,1-dione]	206.5	103	57.9	234
COCC1CCN(c2cc(C(=O)NS(=O)(=O)CC(=O)OC)nc3c2c(C2CCC2)nn3-c2ccccc2)CC1 [Compound 376, methyl ({3-cyclobutyl-4-[4-(methoxymethyl)piperidin-1-yl]-1-phenyl-1H-pyrazolo[3,4-b]pyridine-6-carbonyl}sulfamoyl)acetate]	496.8	51.6	355.7	117
CS(=O)(=O)NC(=O)c1cc(-c2ccc(N3CCC(C#N)CC3)nc2)c2c(C3CC(F)C3)nn(-c3ccccc3)c2n1 (stereo not shown) [Compound 197, 4-[6-(4-cyanopiperidin-1-yl)pyridin-3-yl]-3-(3-fluorocyclobutyl)-N-(methanesulfonyl)-1-phenyl-1H-pyrazolo[3,4-b]pyridine-6-carboxamide]	390.8	194	220.2	397
Cc1nn(-c2ccc(F)cc2F)c2nc(C(=O)NS(C)(=O)=O)cc(-c3ccc(N4CCOCC4)cc3)c12 [Compound 21, 1-(2,4-difluorophenyl)-N-(methanesulfonyl)-3-methyl-4-[4-(morpholin-4-yl)phenyl]-1H-pyrazolo[3,4-b]pyridine-6-carboxamide]	440.1	525	264.25	685
CS(=O)(=O)NC(=O)c1cc(OC[C@H](F)C2CCOCC2)c2c(C3CCC3)nn(-c3ccccc3)c2n1 [Compound 237, 3-cyclobutyl-4-[(2R)-2-fluoro-2-(oxan-4-yl)ethoxy]-N-(methanesulfonyl)-1-phenyl-1H-pyrazolo[3,4-b]pyridine-6-carboxamide]	264.05	222	120	453
CS(=O)(=O)NC(=O)c1cc(N2CC3(CCCC3)C2)c2c(C3CCC3)nn(-c3ccccc3)c2n1 [Compound 184, 4-(2-azaspiro[3.4]octan-2-yl)-3-cyclobutyl-N-(methanesulfonyl)-1-phenyl-1H-pyrazolo[3,4-b]pyridine-6-carboxamide]	282.7	574	95.405	719
COCC1CCN(c2cc(C(=O)NS(=O)(=O)N3CCC(N4CCC[C@H]4COC)CC3)nc3c2c(C2CCC2)nn3-c2ccccc2)CC1 [Compound 390, 3-cyclobutyl-4-[4-(methoxymethyl)piperidin-1-yl]-N-{4-[(2S)-2-(methoxymethyl)pyrrolidin-1-yl]piperidine-1-sulfonyl}-1-phenyl-1H-pyrazolo[3,4-b]pyridine-6-carboxamide]	350.17	140	188.2	177
COCC1CCN(c2cc(C(=O)NS(=O)(=O)N(C)C)nc3c2c(C2CCC2)nn3-c2ccnc(C3CCOCC3)c2)CC1 [Compound 531, 3-cyclobutyl-N-(dimethylsulfamoyl)-4-[4-(methoxymethyl)piperidin-1-yl]-1-[2-(oxan-4-yl)pyridin-4-yl]-1H-pyrazolo[3,4-b]pyridine-6-carboxamide]	349.65	63.5	182.8	234
COCCOCC1(F)CCCN(c2cc(C(=O)NS(C)(=O)=O)nc3c2c(C2CCC2)nn3-c2ccccc2)C1 (stereo not shown) [Compound 503, 3-cyclobutyl-4-{3-fluoro-3-[(2-methoxyethoxy)methyl]piperidin-1-yl}-N-(methanesulfonyl)-1-phenyl-1H-pyrazolo[3,4-b]pyridine-6-carboxamide]	433.2	405	203.4	419
O=C(c1cc(N2CCC(N3CCOCC3)CC2)c2c(C3CCC3)nn(-c3ccccc3)c2n1)N1CCCCS1(=O)=O [Compound 666, 2-{3-cyclobutyl-4-[4-(morpholin-4-yl)piperidin-1-yl]-1-phenyl-1H-pyrazolo[3,4-b]pyridine-6-carbonyl}-1λ^6,2-thiazinane-1,1-dione]	266.6	122	99.775	256
CC(C)c1nn(-c2ccc(F)cc2)c2nc(C(=O)NS(C)(=O)=O)cc(OCCN(C(C)C)C3COC3)c12 [Compound 309, 1-(4-fluorophenyl)-N-(methanesulfonyl)-4-{2-[(oxetan-3-yl)(propan-2-yl)amino]ethoxy}-3-(propan-2-yl)-1H-pyrazolo[3,4-b]pyridine-6-carboxamide]	303.6	224	149	444
COC(=O)N1CC(c2nn(-c3cc(F)cc(F)c3)c3nc(C(=O)NS(C)(=O)=O)cc(-c4ccc(NC(C)=O)cc4)c23)C1 [Compound 107, methyl 3-{4-(4-acetamidophenyl)-1-(3,5-difluorophenyl)-6-[(methanesulfonyl)carbamoyl]-1H-pyrazolo[3,4-b]pyridin-3-yl}azetidine-1-carboxylate]	219.4	3340	64.54	3340
CCS(=O)(=O)NC(=O)c1cc(-c2cnc(N(C)C)nc2)c2c(C)nn(C3CCCCC3)c2n1 [Compound 50, 1-cyclohexyl-4-[2-(dimethylamino)pyrimidin-5-yl]-N-(ethanesulfonyl)-3-methyl-1H-pyrazolo[3,4-b]pyridine-6-carboxamide]	300	1080	109.8	1680
CS(=O)(=O)NC(=O)c1cc(-c2ccc(N3CCC(C#N)CC3)nc2)c2c(n1)n(-c1ccccc1)nc2[C@H]1C[C@H](F)C1 [Compound 210, 4-[6-(4-cyanopiperidin-1-yl)pyridin-3-yl]-3-(trans-3-fluorocyclobutyl)-N-(methanesulfonyl)-1-phenyl-1H-pyrazolo[3,4-b]pyridine-6-carboxamide]	390.57	174	205.57	286
CN(C(=O)c1cc(N2CCC(N3CCOCC3)CC2)c2c(C3CCC3)nn(-c3ccccc3)c2n1)S(C)(=O)=O [Compound 656, 3-cyclobutyl-N-(methanesulfonyl)-N-methyl-4-[4-(morpholin-4-yl)piperidin-1-yl]-1-phenyl-1H-pyrazolo[3,4-b]pyridine-6-carboxamide]	289.68		102.63	
CN(C)S(=O)(=O)NC(=O)c1cc(N2CCC3(CC2)CCN(C2CC2)CC3)c2c(C3CCC3)nn(-c3ccc(F)cc3)c2n1 [Compound 584, 3-cyclobutyl-4-(9-cyclopropyl-3,9-diazaspiro[5.5]undecan-3-yl)-N-(dimethylsulfamoyl)-1-(4-fluorophenyl)-1H-pyrazolo[3,4-b]pyridine-6-carboxamide]	337.55	272	164.3	177
CC(C)c1nn(-c2ccc(F)cc2)c2nc(C(=O)NS(C)(=O)=O)cc(OCC3(C)COC3)c12 [Compound 293, 1-(4-fluorophenyl)-N-(methanesulfonyl)-4-[(3-methyloxetan-3-yl)methoxy]-3-(propan-2-yl)-1H-pyrazolo[3,4-b]pyridine-6-carboxamide]	317.1	480	113.3	622
